Assay results taken from patent US20210254056A1, “IDENTIFICATION AND TARGETED MODULATION OF GENE SIGNALING NETWORKS” (CAMP4 THERAPEUTICS CORPORATION, priority 2017, published 2021).

Assays:
COL1A1 gene = assay: RNA-seq gene expression after compound treatment, COL1A1; type: cell-based, human; conditions: FIG. 11B; gene implicated in liver fibrosis
Description: FIG. 11B are ChIP-seq results for an insulated neighborhood and RNA-seq results showing modulation of the COL1A1 gene implicated in liver fibrosis by BIO inhibitor (MT-209), a Wnt pathway agonist.
In certain embodiments, hepatocytes are used to map a healthy cell population. The liver is a source of many known genetic disease and provides homogeneous primary tissue with high availability. Additionally, most toxicology is done in the liver, which provides drug toxicity insights. In some embodiments, different stimuli, such as those described herein, are contacted with a cell to induce various GSC responses in the hepatocytes. For example, small molecules may be administered to identify liver disease genes whose expression is modulated by the small molecules. These responses provide an understanding of GSCs in liver cells: genomic positions, protein composition, and genome architecture. Alternatively, blood or muscle tissue may be mapped as a healthy population, as a disease model, or as primary disease cells. About 20 million cells are generally needed for accurate ChIP (chromatin immunoprecipitation) analysis. Therefore, in some embodiments, erythroid cells may be used to develop a conditionally immortalized cell system to produce a sufficient biomass for ChIP analysis of a cell with a disease phenotype.

hepatocytes = conditions: {}
TF1 RPS19 KD cells = assay: Dose titration of compounds into RPS19 KD TF1 cells (p53 by qRT-PCR, viability ATP assay); type: cell-based; conditions: after transduction with constitutive pLKO shRNA plasmid
Protocol: The concentration of the compounds needed to observe a rescued DBA phenotype in TF1 RPS19 KD cells was determined via qRT-PCR analysis of p53 levels. […] Nine different cell lines were used. […] Cells were collected in separate tubes in a concentration of 1000 cells/μL to reach a concentration of 50,000 cells/50 μL per well. Cell were centrifuged at 1,200 rpm for 5 minutes. Then, the media was aspirated and cells were resuspended in RPMI+GCMSF medium.
For the preparation of Dose 1 (final concentration on plate 25 μM), a 50 μM solution was made by adding 300 μL of […] to 300 μL of RPM1+GCMSF+2% DMSO (final 1% DMSO). The 50 μM solution was further diluted to 2× when added with the cells into a well, resulting in a final concentration of 25 μM. […] DMSO 1% was used for each cell type as DMSO control.
A 96-well plate was used for analysis of each dose on each cell type. Fifty μL of each cell type and 50 μL of a diluted compound are added to the corresponding wells for a total of 100 μL RPMI+GCMSF+1% DMSO, with 50,000 cells/well. The following day, 50 μL for RNA (25,000 cells) and 50 μL for viability ATP assay (25,000 cells) were collected from each well.
Dose titration was performed as described in Example 1. […] Phenotype rescue was determined by measuring p53 levels by qRT-PCR analysis. […]

[1] = test system: normal cord blood erythroblast cells; assay: qRT-PCR after constitutive (pLKO) shRNA knockdown in normal CD34+ cells; type: cell-based, human; conditions: for increase in expression of p21: pLKO constitutive knockdown, compared to the level observed for the p53 knockdowns, qRT-PCR; for RQ, ALAS2: relative quantification of ALAS2 expression vs control sh_NT; for RQ, BCLXL: relative quantification of BCLXL expression vs control sh_NT; for RQ, MYC: relative quantification of MYC expression vs control sh_NT; for RQ, P53: relative quantification of P53 expression vs control shNT; for RQ, RPL11: relative quantification of RPL11 expression vs control shNT; for RQ, p21: relative quantification of p21 expression vs control sh_NT; for RQ, p53: relative quantification of p53 expression vs control sh_NT
Protocol: Conditionally immortalized cord blood CD34+ cells were transduced with the shRNA lentiviruses using the retronectin-transduction protocol (Clontech). Puromycin selection was performed 24-48 hours post-transduction. Cells were counted to monitor cell viability. After 12 days, which allowed for a large biomass, knockdown efficiency was analyzed. qRT-PCR was used to identify changes in mRNA, and Western blot was used to determine levels of protein depletion.
(§1) For RNA extraction, 1×10^6 cells were harvested in 500 μL of TRIZOL reagent (Thermo Scientific), and incubated for 5 minutes at room temperature. Then, 100 μL of chloroform was added to the cells, and the mixture was vortexed and then centrifuged at 12,000× gravity for 15 minutes. The aqueous phase was transferred to fresh tubes and one volume of 70% ethanol was added. The TRIZOL Plus RNA purification Kit (Thermo Scientific) was used for the remaining extraction protocol according to the manufacturer's instructions. For the conversion of RNA to cDNA the High Capacity cDNA RT kit (Thermo Scientific) was used according to the manufacturer's instructions. The cDNA was analyzed with qRT-PCR to determine the fold change of knockdown cells using Taqman Fast PCR mix and Applied Biosystems probes (Thermo Scientific).
shRNAs targeting RPS19, p53, or RPL11 were delivered to normal cord blood erythroblast cells using either the pLKO (constitutive) and pTRIPZ (inducible) plasmids described in Example 1. The mRNA expression of the p53 pathway proteins; progenitor factor GATA2; and differentiation factors HBB and GATA1 were measured by qRT-PCR. Cells not transduced with a shRNA as well as cells transduced with a non-targeting shRNA served as controls.
HBB is associated with differentiation of CD34^+ cells, and p21 is associated with the p53 pathway. […]
To determine the effect of p53 knockdown on expression of other genes, cells were also transduced with pLKO containing p53_sh4 or p53_sh5. To determine the effect of RPS19 knockdown on expression of other genes, cells were transduced with pLKO containing RPS19_sh1, RPS19_sh2, RPS19_sh3, RPS19_sh4, RPS19_sh5, and sh_NT as a control. The relative quantifications of expression of differentiation associated genes ALAS2 and HBB, immortalization factors BCLXL and MYC, and targets of interest p53 and RPS19 are shown in Table 79.

TF1 cells = assay: Biological activity of maximal compound dosages in TF1 cells; type: cell-based; conditions: 10 μM dose
Protocol: (§2) The stock for each compound was at 10 mM and were diluted to 100 μM with RMPI+GCMSF (2% DMSO). Cells were collected and resuspended in 8 mL of RPMI+GMCSF at a concentration of 1×10^6 cells/mL. For the TF1 cells, at each well of a 6-well plate were added 1 mL of cells, 300 μL of 100 μM compound dilution, and 1.7 mL of RMPI+GCMSF+1.5% DMSO (1% final DMSO concentration in 3 mL total). One mL of the CI-CB-CD34+ cells, 300 μL of 100 μM compound dilution, and 700 μL of RMPI+GCMSF ([…]) were added to each well of a 6-well plate.
(§3) Compound dilutions were performed as described in Example 1. […] In a 6-well format, there were 1 million cells/well=1 million cells/ml=1000 cells/pl. […].

CI-CB-CD34+ cells = assay: Biological activity of maximal compound dosages in CI-CB-CD34+ cells; type: cell-based, human; conditions: 10 μM dose
Protocol: as §2, §3

[2] = test system: CB-CI-IRES-CD34+ cell line; assay: qRT-PCR and knockdown efficiency of shRNAs in conditionally immortalized cord blood CD34+ cells; type: cell-based, human; conditions: qRT-PCR; CB-CI-IRES-CD34+ cells transduced with pTRIPZ shRNA; B-ACTIN control; relative to pTRIPZ NT
Protocol: as §1
qRT-PCR was used to analyze expression of p53 pathway-associated genes p21, RPS19, and RPL11; differentiation marker HBB; and internal control B-ACTIN in the cord blood conditionally immortalized CD34+ (CB-CI-IRES-CD34+) cell line transduced with the pTRIPZ plasmid containing NT (Model 9), RPL11_sh1 (Model 4) and RPL11_sh2 (Model 5) for a RPL11 knockdown, and RPS19_sh1 (Model 6) and RPS19_sh2 (Model 7) for a RPS19 knockdown.
qRT-PCR was used to determine the levels of expression of ALAS2, GAPDH, GATA1, GATA2, HBB, and p53 in differentiated CB-CI-IRES cells using GAPDH as an internal control as shown in Table 86.
Gene expression was compared for CB-CI-IRES cells during expansion and differentiation. […] GAPDH was used as an internal control.
The efficiency of different shRNAs were tested in a conditionally immortalized cord blood erythroblast cell system to mimic DBA. The pTRIPZ was used to transduce these cells with sh1 (dox inducible shRPS19) or sh2 (dox inducible shRPS19), and pLKO was used to transduce a group of cells with sh5 (shRPS19). qRT-PCR was used to determine the level of gene expression in RPS19 mRNA knockdown in each group of cells. The percent of knockdown is shown in Table 90 after 1 week (T1), 2 weeks (T2), and 3 weeks (T3) for each shRNA.

[3] = relative quantification of HBB expression vs control shNT, pLKO constitutive shRNA, GAPDH internal control, Table 78
[4] = relative quantification of HBB expression vs control sh_NT, pLKO shRNA, B-ACTIN, Table 79
[5] = pLKO constitutive shRNA, GAPDH internal control, Table 78
[6] = relative quantification of RPS19 expression vs control shNT, pLKO constitutive shRNA, GAPDH internal control, Table 78
[7] = relative quantification of RPS19 expression vs control sh_NT, pLKO shRNA, B-ACTIN, Table 79

| Compound | expression of the COL1A1 gene (RNA-seq) (COL1A1 gene) | # of genes having significantly altered expression (hepatocytes) | Cell density (TF1 RPS19 KD cells) | increase in expression of p21 [1] | RQ, ALAS2 ([1]; pLKO shRNA, B-ACTIN, Table 79) | RQ, BCLXL ([1]; pLKO shRNA, B-ACTIN, Table 79) | RQ, HBB [1, 3] | RQ, HBB [1, 4] | RQ, MYC ([1]; pLKO shRNA, B-ACTIN, Table 79) | RQ, P53 [1, 5] | RQ, RPL11 [1, 5] | RQ, RPS19 [1, 6] | RQ, RPS19 [1, 7] | RQ, p21 ([1]; pLKO shRNA, B-ACTIN, Table 79) | RQ, p53 ([1]; pLKO shRNA, B-ACTIN, Table 79) | response of TF1 cells (biological activity, cell viability) (TF1 cells) | biological activity of CD34+ cells (cell viability) (CI-CB-CD34+ cells) | RQ of HBB [2] | RQ of RPL11 [2] | RQ of p21 [2] |
| --- | --- | --- | --- | --- | --- | --- | --- | --- | --- | --- | --- | --- | --- | --- | --- | --- | --- | --- | --- | --- |
| O=C1Nc2cc(Br)ccc2/C1=C1/Nc2ccccc2/C1=N\O [BIO inhibitor] | modulation | – | – | – | – | – | – | – | – | – | – | – | – | – | – | – | – | – | – | – |
| Cn1cncc1[C@@](N)(c1ccc(Cl)cc1)c1ccc2c(c1)c(-c1cccc(Cl)c1)cc(=O)n2C [Tipifarnib] | – | 34 | – | – | – | – | – | – | – | – | – | – | – | – | – | – | – | – | – | – |
| RPS19_sh4: shRNA targeting RPS19 in the constitutive pLKO plasmid, SEQ ID NO 32575 (GCTTGCTCCCTACGATGAGAA; listed as Homo sapiens) | – | – | 124,000 cells/mll | 12.8 fold | 0.16 | 0.87 | 0.42 | 0.03 | 1.03 | 1.24 | 1.02 | 1.54 | 0.43 | 12.78 | 1.74 | – | – | – | – | – |
| RPS19_sh5: shRNA targeting RPS19 in the constitutive pLKO plasmid, SEQ ID NO 32576 (CGGCGTCATGCCCAGCCACTT; listed as Homo sapiens) | – | – | 962,000 cells/mll | 5.8 fold | 1.51 | 0.99 | 0.75 | 0.15 | 1.43 | 1.41 | 1.09 | 0.65 | 0.15 | 5.75 | 0.74 | – | – | – | – | – |
| COc1ccc(C2=N[C@@H](c3ccc(Cl)cc3)[C@@H](c3ccc(Cl)cc3)N2C(=O)N2CCNC(=O)C2)c(OC(C)C)c1 [Nutlin 3a] | – | – | – | – | – | – | – | – | – | – | – | – | – | – | – | did not significantly respond | reduced biological activity | – | – | – |
| RPS19_sh1 (CTACGATGAGAACTGGTTCT; expressed or natural sequence; listed as Homo sapiens) | – | – | – | – | 0.02 | 0.34 | 0.04 | 0.00 | 0.52 | 1.34 | 0.74 | 0.59 | 0.47 | 0.53 | 0.65 | – | – | 2.28 | 1.52 | 1.35 |
